Measurements taken from patent publication US9284307B2, “Macrocyclic serine protease inhibitors” (Idenix Pharmaceuticals LLC, priority 2009, dated 2016).

Columns and labels:
[1] = tested on: HCV genotype 1b Con1 strain subgenomic luciferase replicon (Zluc) in Huh-7 cells; experiment: Luciferase replicon assay, genotype 1b (Zluc); type: cell-based; conditions: Hepatitis C virus, genotype 1b Con1 luciferase replicon (Zluc), 72 hours, read-out: EC50 Against Relpicon 1b
Procedure: The HCV luciferase replicon assay measures the ability of a test compound to inhibit HCV replication in cell culture after 3 days of treatment in a human hepatoma cell line (Huh-7) bearing a HCV replicon containing a luciferase-neomycin phosphotransferase fusion gene. The inhibition of HCV replication was measured by quantification of luciferase protein expression. Briefly, Huh-7 cells containing either the HCV genotype 1a H77 strain or genotype 1b Con1 strain subgenomic luciferase replicon (H1a-luc or Zluc, respectively) were grown in DMEM containing glucose, L-glutamine and sodium pyruvate, 10% fetal bovine serum (FBS), 100 IU/mL penicillin, 100 μg/mL streptomycin, 2 mM GlutaMAX, non-essential amino acids and 0.25 (H1a-luc) or 0.5 (Zluc) mg/mL G418. GlutaMAX was obtained from Invitrogen. Corp.; all other media reagents were obtained from Mediatech, Inc. For dose-response testing, the cells were seeded in 96-well plates at 1×10^4 (H1a-luc) or 7.5×10^3 (Zluc) cells/well in a volume of 50 μL, and incubated at 37° C./5% CO2. […] The assay plates were shaken for 3 minutes at room temperature and luciferase activity for each well was measured with a 1 sec read time on the Victor^3V multilabel counter using a 700 nm cut-off filter (Perkin Elmer). EC50 values were calculated from dose response curves from the resulting best-fit equations determined by Microsoft Excel and XLfit 4.1 software.

CYP2B6 = molecular target: T1, CYP2B6 (Homo sapiens, UniProt P20813); experiment: In vitro CYP450 inhibition screen, fluorogenic assay, CYP2B6; type: in vitro ADME; conditions: probe substrate 7-Ethoxy-4-trifluoromethylcoumarin, average of two independent experiments
T1 construct: purchased BD Bioscience 459220
T1 sequence (P20813 whole entry): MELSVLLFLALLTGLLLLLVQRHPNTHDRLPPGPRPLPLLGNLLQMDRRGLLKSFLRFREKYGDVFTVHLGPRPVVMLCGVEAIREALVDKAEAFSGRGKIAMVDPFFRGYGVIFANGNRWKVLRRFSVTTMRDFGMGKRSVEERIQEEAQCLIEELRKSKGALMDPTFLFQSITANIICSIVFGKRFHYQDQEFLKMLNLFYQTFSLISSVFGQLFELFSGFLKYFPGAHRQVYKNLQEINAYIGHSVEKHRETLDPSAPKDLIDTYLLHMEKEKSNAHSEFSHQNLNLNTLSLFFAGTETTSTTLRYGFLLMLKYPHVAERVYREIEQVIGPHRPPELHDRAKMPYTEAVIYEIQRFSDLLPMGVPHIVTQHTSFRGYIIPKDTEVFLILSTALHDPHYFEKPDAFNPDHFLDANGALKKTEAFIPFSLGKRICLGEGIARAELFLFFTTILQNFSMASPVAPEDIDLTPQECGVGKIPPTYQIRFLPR
Procedure: (§1) CYP1A2 (BD Bioscience Cat #459500), CYP2B6 (BD Bioscience cat #459220), and CYP3A4 (BD Bioscience Cat #459100) inhibition fluorogenic assays were performed according to the manufacturer's protocol. Test articles were prepared as 10 mM stock solutions in DMSO.
(§2) Data represent the average of two independent experiments. A represents inhibition of 5 to 10%. B represents inhibition of >10% to 20%. C represents inhibition of >20% to 30%. D represents inhibition of >30% to 40%. I represents an IC50 of 5 to 9 μM.

CYP2C8 = molecular target: T2, CYP2C8 (Homo sapiens, UniProt P10632); experiment: In vitro CYP450 inhibition screen, luminogenic assay, CYP2C8; type: in vitro ADME; conditions: probe substrate Luciferin-ME, average of two independent experiments
T2 construct: purchased BD Bioscience
T2 sequence (P10632 whole entry): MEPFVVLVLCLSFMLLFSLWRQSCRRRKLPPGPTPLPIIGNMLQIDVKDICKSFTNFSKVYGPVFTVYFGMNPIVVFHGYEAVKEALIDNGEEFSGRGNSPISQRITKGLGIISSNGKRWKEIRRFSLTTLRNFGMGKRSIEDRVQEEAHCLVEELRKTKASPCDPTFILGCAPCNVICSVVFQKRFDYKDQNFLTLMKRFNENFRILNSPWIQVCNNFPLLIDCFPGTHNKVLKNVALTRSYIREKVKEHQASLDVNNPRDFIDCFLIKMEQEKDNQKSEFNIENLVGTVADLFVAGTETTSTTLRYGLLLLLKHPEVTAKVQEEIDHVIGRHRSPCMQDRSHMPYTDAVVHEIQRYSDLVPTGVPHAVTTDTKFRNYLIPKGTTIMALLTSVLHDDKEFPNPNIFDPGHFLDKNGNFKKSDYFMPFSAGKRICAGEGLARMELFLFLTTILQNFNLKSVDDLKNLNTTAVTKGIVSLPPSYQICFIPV
Procedure: CYP2C8, 2C9, 2C19 and 2D6 (BD Bioscience) inhibition luminogenic assay was performed as per the protocol provided by Promega (P450-Glo™ Assay Technical Bulletin #TB325, P450-Glo™ Screening Systems Technical Bulletin #TB340). Test articles were prepared as 10 mM stock solutions in DMSO.
as §2

CYP1A2 = molecular target: T3, CYP1A2 (Homo sapiens, UniProt P05177); experiment: In vitro CYP450 inhibition screen, fluorogenic assay, CYP1A2; type: in vitro ADME; conditions: probe substrate 3-Cyano-7-Ethoxycoumarin; average of two independent experiments
T3 construct: purchased BD Bioscience 459500
T3 sequence (P05177 whole entry): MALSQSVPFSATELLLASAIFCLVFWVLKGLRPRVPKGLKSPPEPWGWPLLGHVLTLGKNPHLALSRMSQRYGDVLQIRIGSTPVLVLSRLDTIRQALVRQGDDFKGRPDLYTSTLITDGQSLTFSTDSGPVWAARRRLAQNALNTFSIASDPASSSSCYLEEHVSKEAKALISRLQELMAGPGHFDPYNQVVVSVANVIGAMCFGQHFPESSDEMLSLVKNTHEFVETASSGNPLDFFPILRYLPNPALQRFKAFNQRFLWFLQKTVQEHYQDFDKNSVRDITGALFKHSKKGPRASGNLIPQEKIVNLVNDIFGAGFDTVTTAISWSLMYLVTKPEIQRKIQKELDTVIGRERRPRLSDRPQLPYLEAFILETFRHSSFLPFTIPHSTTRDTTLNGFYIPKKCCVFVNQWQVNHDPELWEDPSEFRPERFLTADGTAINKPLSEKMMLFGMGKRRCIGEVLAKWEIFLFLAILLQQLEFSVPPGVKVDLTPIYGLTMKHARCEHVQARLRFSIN
Procedure: as §1, §2

| SMILES | EC50 [1] | inhibition at 20 µM (CYP2B6; human, CYP2B6 enzyme (BD Bioscience cat #459220), probe 7-Ethoxy-4-trifluoromethylcoumarin, read-out: IC50 (μM) or % Inhibition at 20 μM, CYP450 2B6) | IC50 (μM) or % Inhibition at 20 μM, CYP450 2C8 (CYP2C8) | IC50 (μM) or % Inhibition at 20 μM, CYP450 1A2 (CYP1A2) | IC50 (μM) or % Inhibition at 20 μM, CYP450 2B6 (CYP2B6) | inhibition at 20 µM (CYP2C8; human, CYP2C8 enzyme (BD Bioscience), read-out: IC50 (μM) or % Inhibition at 20 μM, CYP450 2C8) |
| --- | --- | --- | --- | --- | --- | --- |
| C#Cc1csc(-c2cc(O[C@H]3CC[C@H]4C(=O)N(C)CCCC/C=C\[C@@H]5C[C@@]5(C(=O)NS(=O)(=O)C5(C)CC5)NC(=O)[C@@H]4C3)c3ccc(OC)c(C)c3n2)n1 [Compound 52, (1aR,3aR,5S,7aR,15aS,Z)-5-(2-(4-ethynylthiazol-2-yl)-7-methoxy-8-methylquinolin-4-yloxy)-9-methyl-N-(1-methylcyclopropylsulfonyl)-3,8-dioxo-1a,2,3,3a,4,5,6,7,7a,8,9,10,11,12,13,15a-hexadecahydro-1H-benzo[c]cyclopropa[g][1,6]diazacyclotetradecine-1a-carboxamide] | < 1000 nM | 30 to 40% | No Inhibition | No Inhibition | – | – |
| COc1ccc2c(O[C@H]3CC[C@H]4C(=O)N(C)CCCC/C=C\[C@@H]5C[C@@]5(C(=O)NS(=O)(=O)C5(C)CC5)NC(=O)[C@@H]4C3)cc(-c3nc(C(F)(F)F)cs3)nc2c1C [Compound 51] | < 1000 nM | – | – | No Inhibition | No Inhibition | 10 to 20% |
